From article PMC7961048, “Hierarchized phosphotarget binding by the seven human 14-3-3 isoforms” (Nature Communications, 2021)
Starred links: 1 amine or outer side, 2 acyl side, 3 side chain; linkers in the order of their positions; H or OH if unused. Non-standard residues stand in square brackets, D forms with d. Residues, ends and D or L forms follow the SMILES beside them. *: point of attachment. X1 = O=C(CCCC[C@@H]1SC[C@@H]2NC(=O)N[C@@H]21)NCCCOCCOCCOCCCN*; pT = C[C@@H](OP(=O)(O)O)[C@H](N)C(=O)O; Suc = O=C(CCC(=O)[*:2])[*:1]

Legend:
[1] = target: T1, 14-3-3ζ (Homo sapiens, UniProt P63104); assay: biochemical; assay type: binding
T1 construct: Plasmids containing the cDNAs of the full-length 14-3-3 isoforms ε, γ, and ζ were received; made in house; host or cells: E. coli BL21(DE3)
T1 sequence (P63104 1-245): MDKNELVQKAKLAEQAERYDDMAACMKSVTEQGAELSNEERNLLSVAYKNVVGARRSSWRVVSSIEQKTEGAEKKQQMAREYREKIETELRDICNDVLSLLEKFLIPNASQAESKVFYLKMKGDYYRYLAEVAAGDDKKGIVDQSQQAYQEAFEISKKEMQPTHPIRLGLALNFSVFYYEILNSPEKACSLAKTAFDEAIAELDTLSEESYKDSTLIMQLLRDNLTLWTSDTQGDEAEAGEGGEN

[2] = target: T2, 14-3-3γ (Homo sapiens, UniProt P61981); assay: biochemical; assay type: binding
T2 construct: full-length human 14-3-3 constructs with an N-terminal MBP fusion were used; made in house; host or cells: E. coli BL21(DE3)
T2 sequence (P61981 1-247): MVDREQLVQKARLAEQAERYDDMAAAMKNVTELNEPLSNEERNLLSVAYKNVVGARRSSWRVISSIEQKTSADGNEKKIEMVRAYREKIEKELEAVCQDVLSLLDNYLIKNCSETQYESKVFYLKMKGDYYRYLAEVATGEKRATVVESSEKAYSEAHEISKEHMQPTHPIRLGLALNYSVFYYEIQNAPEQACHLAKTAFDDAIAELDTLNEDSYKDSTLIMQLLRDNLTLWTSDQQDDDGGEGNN
Method: FP was measured with a PHERAstar (BMG Labtech, Offenburg, Germany) microplate reader by using 485 ± 20 and 528 ± 20 nm band-pass filters (for excitation and emission, respectively). In direct FP measurements, a dilution series of the 14-3-3 protein was prepared in 96-well plates (96-well skirted PCR plate, 4ti-0740, 4titude, Wotton, UK) in a 20 mM HEPES pH 7.5 buffer containing 150 mM NaCl, 0.5 mM TCEP, 0.01% Tween 20, 50 nM fluorescently labeled fpB6 peptide, and 100 μM FSC, if indicated. The volume of the dilution series was 40 μl, which was later divided into three technical replicates of 10 μl upon transferring to 384-well micro-plates (low binding microplate, 384 well, E18063G5, Greiner Bio-One, Kremsmünster, Austria). In total, polarization of the probe was measured at eight different protein concentrations (whereas one contained no protein and corresponded to the free peptide). In competitive FP measurements, the same buffer was supplemented with the protein to achieve a complex formation of 60–80%, based on the direct titration. Then, this mixture was used for creating a dilution series of the unlabeled competitor (i.e., the studied peptides) and the measurement was carried out identically as in the direct experiment.
All FP experiments were done in triplicates. Analysis of FP experiments were carried out using ProFit, an in-house developed, Python-based fitting program. […]

Row | Compound | Kd [1] [µM] | Kd [2] [µM]
1 | CC(C)C[C@H](NC(=O)[C@H](CCC(N)=O)NC(=O)[C@@H](NC(=O)[C@H](CCC(=O)O)NC(=O)[C@H](CCCNC(=N)N)NC(=O)[C@H](CCCNC(=N)N)NC(=O)[C@@H](NC(=O)[C@H](CCCNC(=N)N)NC(=O)[C@H](CO)NC(=O)[C@H](CO)NC(=O)CCC(=O)NCCCOCCOCCOCCCNC(=O)CCCC[C@@H]1SC[C@@H]2NC(=O)N[C@@H]21)[C@@H](C)O)[C@@H](C)OP(=O)(O)O)C(=O)O [pHPV16E6] | 73.6 ± 19.1 | –
2 | CC(C)C[C@H](NC(=O)[C@H](CCCNC(=N)N)NC(=O)CCC(=O)NCCCOCCOCCOCCCNC(=O)CCCC[C@@H]1SC[C@@H]2NC(=O)N[C@@H]21)C(=O)N[C@@H](CCC(N)=O)C(=O)N[C@@H](CCCNC(=N)N)C(=O)N[C@@H](CCCNC(=N)N)C(=O)N[C@@H](CCCNC(=N)N)C(=O)N[C@@H](CCC(=O)O)C(=O)N[C@H](C(=O)N[C@@H](CCC(N)=O)C(=O)N[C@H](C(=O)O)C(C)C)[C@@H](C)OP(=O)(O)O [pHPV18E6] | 22.4 ± 1.3 | –
3 | CC(C)C[C@H](NC(=O)[C@H](C)NC(=O)[C@@H](NC(=O)[C@H](CCC(=O)O)NC(=O)[C@H](CCCNC(=N)N)NC(=O)[C@H](CCCNC(=N)N)NC(=O)[C@H](CCCNC(=N)N)NC(=O)[C@H](CO)NC(=O)[C@H](CCCNC(=N)N)NC(=O)[C@H](CO)NC(=O)CCC(=O)NCCCOCCOCCOCCCNC(=O)CCCC[C@@H]1SC[C@@H]2NC(=O)N[C@@H]21)[C@@H](C)OP(=O)(O)O)C(=O)O [pHPV33E6] ({X1-Suc}-SRSRRRE[pT]AL-OH) | – | 2.2 ± 0.3
4 | CC(C)[C@H](NC(=O)[C@H](C)NC(=O)[C@@H](NC(=O)[C@H](CCC(=O)O)NC(=O)[C@H](CCCNC(=N)N)NC(=O)[C@H](CCCNC(=N)N)NC(=O)[C@@H](NC(=O)[C@@H]1CCCN1C(=O)[C@H](CCCCN)NC(=O)[C@H](CO)NC(=O)CCC(=O)NCCCOCCOCCOCCCNC(=O)CCCC[C@@H]1SC[C@@H]2NC(=O)N[C@@H]21)[C@@H](C)O)[C@@H](C)OP(=O)(O)O)C(=O)O [pHPV35E6E-1A] ({X1-Suc}-SKPTRRE[pT]AV-OH) | 17.6 | –
5 | CC(C)[C@H](NC(=O)[C@H](CCC(=O)O)NC(=O)[C@@H](NC(=O)[C@H](CCC(=O)O)NC(=O)[C@H](CCCNC(=N)N)NC(=O)[C@H](CCCNC(=N)N)NC(=O)[C@H](CCCNC(=N)N)NC(=O)[C@@H]1CCCN1C(=O)[C@H](CCCCN)NC(=O)[C@H](CO)NC(=O)CCC(=O)NCCCOCCOCCOCCCNC(=O)CCCC[C@@H]1SC[C@@H]2NC(=O)N[C@@H]21)[C@@H](C)OP(=O)(O)O)C(=O)O [pHPV35E6T-6R] ({X1-Suc}-SKPRRRE[pT]EV-OH) | 139 ± 21 | –
